Columns and labels:
Assay type in all cases: functional
Rattus norvegicus [1] = test: Antiinflammatory activity in rat assessed as inhibition of carrageenan-induced paw edema at 100 mg/kg, po
Rattus norvegicus [2] = test: Antiinflammatory activity in rat assessed as inhibition of carrageenan-induced paw edema at 2 mg/kg, po
Rattus norvegicus [3] = test: Antiinflammatory activity in rat assessed as inhibition of carrageenan-induced paw edema at 0.125 mg/kg, po

For `CC(=O)Oc1ccccc1C(=O)O` [ASPIRIN], the inhibition in vivo at 100 mg/kg (Rattus norvegicus [1]) was 44%.

With `COc1ccc2c(c1)c(CC(=O)O)c(C)n2C(=O)c1ccc(Cl)cc1` [INDOMETHACIN] the inhibition in vivo at 2 mg/kg (Rattus norvegicus [2]) was 47%.

Compound `C[C@H]1C[C@H]2[C@@H]3CCC4=CC(=O)C=C[C@]4(C)[C@@]3(F)[C@@H](O)C[C@]2(C)[C@@]1(O)C(=O)CO` [BETAMETHASONE] has an inhibition in vivo at 0.125 mg/kg (Rattus norvegicus [3]) of 63%.
